Consider three molecules from US7371773B2, “Breast cancer resistance protein (BCRP) inhibitor” (Kabushiki Kaisha Yakult Honsha, priority 2003, dated 2008).

In brackets after ≈: the same amount, converted by molar mass. Where two headings read alike, the source gives them in different places.

In general, IC50 refers to the midpoint of a concentration-inhibition curve.

Holding throughout (format): cell-based, human
One experiment concerns A549/SN-38-6 cell line. The experiment in a line: Anticancer drug sensitivity test, A549/SN-38-6. The conditions noted are these: for IC50: A549/SN-38-6, culturing 48 hours; for Relative resistance value: IC50 for A549/SN-38-6 divided by IC50 for A549. The protocol: (§1) Human non-small cell lung cancer A549 cell line was subcultured at 5% CO2 and 37° C. by use of a Ham's F-12 medium containing 10% FBS, 100 U/mL of penicillin, and 100 μg/mL of streptomycin (10% FBS/Ham's F-12). SN-38-resistant A549 cell lines were selected by subculturing the A549 cell line in a medium for two months while the concentration of SN-38 contained in the medium was increased in a stepwise manner (4 to 10 ng/mL). Subsequently, the resultant SN-38-resistant A549 cell lines were subjected to cloning by means of limiting dilution, to thereby establish six cloned SN-38-resistant A549 cell lines (A549/SN-38-1 to 6).
(§2) The A549 cell line or each of the A549/SN-38-1 to 6 was suspended in 10% FBS/Ham's F-12, and the resultant suspension was inoculated into a 96-well microplate, followed by culturing at 5% CO2 and 37° C. overnight. Thereafter, a solution of an anticancer drug in 10% FBS/Ham's F-12 (50 μL) was added to each of the wells, followed by culturing at 5% CO2 and 37° C. for 48 hours. After completion of culturing, the number of viable cells was counted by use of a viable cell counting reagent [TetraColor ONE (trade name), product of Seikagaku Corporation] according to the attached instruction manual. […] “Relative resistance value” is obtained by dividing the IC50 for an A549/SN-38 cell line by the IC50 for the A549 cell line. The greater the relative resistance value, the higher the level of acquired resistance.

A further experiment deals with A549/SN-38-1 cell line. The experiment in a line: Anticancer drug sensitivity test, A549/SN-38-1. The note with it: for IC50: A549/SN-38-1, culturing 48 hours; for Relative resistance value: IC50 for A549/SN-38-1 divided by IC50 for A549. As for the experimental part: as §1, §2
Another experiment deals with A549/SN-38-2 cell line. Kind of experiment: Anticancer drug sensitivity test, A549/SN-38-2. The note with it: for IC50: A549/SN-38-2, culturing 48 hours; for Relative resistance value: IC50 for A549/SN-38-2 divided by IC50 for A549. As for the experimental part: as §1, §2
The subject of the next experiment is A549 cell line. The experiment in a line: Anticancer drug sensitivity test, A549 cell line. The note with it: culturing 48 hours. As for the experimental part: as §2
For experiment [1], the system named is A549/SN-38-4 cell line. The experiment in a line: Anticancer drug sensitivity test, A549/SN-38-4. The note with it: for IC50: A549/SN-38-4, culturing 48 hours; for Relative resistance value: IC50 for A549/SN-38-4 divided by IC50 for A549. As for the experimental part: as §1, §2
The subject of another experiment is A549/SN-38-3 cell line. Kind of experiment: Anticancer drug sensitivity test, A549/SN-38-3. The conditions noted are these: for IC50: A549/SN-38-3, culturing 48 hours; for Relative resistance value: IC50 for A549/SN-38-3 divided by IC50 for A549. As for the experimental part:
as §1, §2

The next experiment relates to A549/SN-38-5 cell line. Kind of experiment: Anticancer drug sensitivity test, A549/SN-38-5. The conditions noted are these: for IC50: A549/SN-38-5, culturing 48 hours; for Relative resistance value: IC50 for A549/SN-38-5 divided by IC50 for A549. The protocol:
as §1, §2

A further experiment concerns A549/SN-38 cell lines. The experiment in a line: Anticancer drug sensitivity test, A549/SN-38 cell lines as a group. The note with it: BCRP substrates.
In experiment [2] the test system is A549/SN-38-4 cell line. Kind of experiment: Amount of anticancer drug accumulated in A549/SN-38 cell line. The note with it: SN-38 300 ng/mL, 37° C., 60 minutes.

Turning to `CC(=O)O[C@H]1C(=O)[C@@]2(C)[C@H]([C@H](OC(=O)c3ccccc3)[C@]3(O)C[C@H](OC(=O)[C@H](O)[C@@H](NC(=O)c4ccccc4)c4ccccc4)C(C)=C1C3(C)C)[C@]1(OC(C)=O)CO[C@@H]1C[C@@H]2O` [Paclitaxel], the IC50 in the experiment on A549/SN-38-6 cell line (Homo sapiens, read-out: IC50) was determined as 0.0071 µg/mL (≈ 0.00831 µM); with A549/SN-38-1 cell line (Homo sapiens, read-out: IC50) it was 0.0098 µg/mL (≈ 0.0115 µM); in the experiment with A549/SN-38-2 cell line (Homo sapiens, read-out: IC50), 0.012 µg/mL (≈ 0.0141 µM); in the experiment on A549 cell line (Homo sapiens, read-out: IC50), 0.0049 µg/mL (≈ 0.00574 µM); in the experiment with A549/SN-38-4 cell line [1] (Homo sapiens, read-out: IC50), 0.014 µg/mL (≈ 0.0164 µM); in the experiment on A549/SN-38-3 cell line (Homo sapiens, read-out: IC50) it was 0.013 µg/mL (≈ 0.0152 µM). Also, the IC50 with A549/SN-38-5 cell line (Homo sapiens, read-out: IC50) was 0.0061 µg/mL (≈ 0.00714 µM). The Relative resistance value result is given as “(1.4)” in the experiment on A549/SN-38-6 cell line; “(2.0)” with A549/SN-38-1 cell line; “(2.4)” in the experiment on A549/SN-38-2 cell line; “(2.8)” in the experiment on A549/SN-38-4 cell line [1]; “(2.7)” with A549/SN-38-3 cell line; “(1.2)” with A549/SN-38-5 cell line.

Take `CCc1c2c(nc3ccc(O)cc13)-c1cc3c(c(=O)n1C2)COC(=O)[C@]3(O)CC` [SN-38, 7-ethyl-10-hydroxycamptothecin]: the IC50 in the experiment on A549/SN-38-6 cell line amounted to 0.10 µg/mL (≈ 0.255 µM); with A549/SN-38-1 cell line, 0.12 µg/mL (≈ 0.306 µM); in the experiment on A549/SN-38-2 cell line, 0.10 µg/mL (≈ 0.255 µM); in the experiment with A549 cell line it was 0.013 µg/mL (≈ 0.0331 µM); in the experiment on A549/SN-38-4 cell line [1] it was 0.10 µg/mL (≈ 0.255 µM); with A549/SN-38-3 cell line, 0.13 µg/mL (≈ 0.331 µM). Besides, the IC50 with A549/SN-38-5 cell line is 0.10 µg/mL (≈ 0.255 µM). Moreover, the Relative resistance value entry is recorded as “(7.4)” in the experiment on A549/SN-38-6 cell line; “(9.2)” with A549/SN-38-1 cell line; “(7.5)” in the experiment with A549/SN-38-2 cell line; “(7.7)” with A549/SN-38-4 cell line [1]; “(9.7)” in the experiment on A549/SN-38-3 cell line; “(7.7)” in the experiment with A549/SN-38-5 cell line. Also, the “Resistance of A549/SN-38 cell lines to the anticancer drug” value in the experiment with A549/SN-38 cell lines is given as “particularly strong resistance”. In addition, the “Amount of SN-38 accumulated in A549/SN-38-4 relative to A549 cell line” value in the experiment with A549/SN-38-4 cell line [2] is recorded as “about ⅕”.

As for `O=C1c2c(O)ccc(O)c2C(=O)c2c(NCCNCCO)ccc(NCCNCCO)c21` [mitoxantrone], the “Resistance of A549/SN-38 cell lines to the anticancer drug” value in the experiment on A549/SN-38 cell lines is “particularly strong resistance”.
